Test results taken from patent US20250221976A1, “COMPOUNDS, COMPOSITIONS AND METHODS OF TREATING NEUROPATHIC PAIN” (THE UNIVERSITY OF HONG KONG, priority 2024, published 2025).

How the values were obtained:
[1] = system: voltage-gated sodium (NaV) channels; assay: Whole-cell voltage clamp of NaV currents in small diameter DRG neurons; format: cell-based, rat; conditions: primary cultured small diameter (<30 μm) DRG neurons, 20 μM overnight
Procedure: DRG neurons were obtained from rodents by acute isolation as previously described^21, 22. After animals were euthanized, the dorsal skin was removed to perform laminectomy to expose DRG, L4-L6 DRGs were rapidly collected from the intervertebral foramen. The collected DRGs were digested in 3 mL bicarbonate-free, serum-free, sterile DMEM (cat. no. 11965; Thermo Fisher Scientific) containing a mixture of enzymes (neutral protease, 3.125 mg/mL (cat. no. LS02104; Worthington) and collagenase Type I 5 mg/mL (cat. no. LS004194; Worthington)), incubated in a shaker at 37° C. […]
(§1) Whole-cell voltage clamp recording was performed as previously described. […] Data were obtained by Patchmaster (HEKA) and analyzed with Fitmaster (HEKA). […]
(§2) NaV currents were measured from rodent DRG small diameter (<30 μm) neurons. […] This process occurs between 0 and 10 mV and can be analyzed as a function of voltage, as inferred from the peak current density (normalized to the cell capacitance (picofarad, pF)); (ii) Inactivation protocol: starting from a clamp potential of −60 mV, a hyperpolarization/depolarization pulse of 1 second in the range of −120 to 20 mV, in steps of +10 mV for 1 second. […] The Boltzmann relevant factors, similar to half-maximal activation (V50) and slope, for the single fits to the data, are calculated, summarized, and compared among groups. […]

NaV1.7 = biological target: T1, NaV1.7 (Homo sapiens, UniProt Q15858); assay: Whole-cell voltage clamp of NaV1.7 currents in transfected HEK293 cells; format: cell-based
T1 construct: conflicts with the methods; host or cells: HEK293
T1 sequence (Q15858 whole entry): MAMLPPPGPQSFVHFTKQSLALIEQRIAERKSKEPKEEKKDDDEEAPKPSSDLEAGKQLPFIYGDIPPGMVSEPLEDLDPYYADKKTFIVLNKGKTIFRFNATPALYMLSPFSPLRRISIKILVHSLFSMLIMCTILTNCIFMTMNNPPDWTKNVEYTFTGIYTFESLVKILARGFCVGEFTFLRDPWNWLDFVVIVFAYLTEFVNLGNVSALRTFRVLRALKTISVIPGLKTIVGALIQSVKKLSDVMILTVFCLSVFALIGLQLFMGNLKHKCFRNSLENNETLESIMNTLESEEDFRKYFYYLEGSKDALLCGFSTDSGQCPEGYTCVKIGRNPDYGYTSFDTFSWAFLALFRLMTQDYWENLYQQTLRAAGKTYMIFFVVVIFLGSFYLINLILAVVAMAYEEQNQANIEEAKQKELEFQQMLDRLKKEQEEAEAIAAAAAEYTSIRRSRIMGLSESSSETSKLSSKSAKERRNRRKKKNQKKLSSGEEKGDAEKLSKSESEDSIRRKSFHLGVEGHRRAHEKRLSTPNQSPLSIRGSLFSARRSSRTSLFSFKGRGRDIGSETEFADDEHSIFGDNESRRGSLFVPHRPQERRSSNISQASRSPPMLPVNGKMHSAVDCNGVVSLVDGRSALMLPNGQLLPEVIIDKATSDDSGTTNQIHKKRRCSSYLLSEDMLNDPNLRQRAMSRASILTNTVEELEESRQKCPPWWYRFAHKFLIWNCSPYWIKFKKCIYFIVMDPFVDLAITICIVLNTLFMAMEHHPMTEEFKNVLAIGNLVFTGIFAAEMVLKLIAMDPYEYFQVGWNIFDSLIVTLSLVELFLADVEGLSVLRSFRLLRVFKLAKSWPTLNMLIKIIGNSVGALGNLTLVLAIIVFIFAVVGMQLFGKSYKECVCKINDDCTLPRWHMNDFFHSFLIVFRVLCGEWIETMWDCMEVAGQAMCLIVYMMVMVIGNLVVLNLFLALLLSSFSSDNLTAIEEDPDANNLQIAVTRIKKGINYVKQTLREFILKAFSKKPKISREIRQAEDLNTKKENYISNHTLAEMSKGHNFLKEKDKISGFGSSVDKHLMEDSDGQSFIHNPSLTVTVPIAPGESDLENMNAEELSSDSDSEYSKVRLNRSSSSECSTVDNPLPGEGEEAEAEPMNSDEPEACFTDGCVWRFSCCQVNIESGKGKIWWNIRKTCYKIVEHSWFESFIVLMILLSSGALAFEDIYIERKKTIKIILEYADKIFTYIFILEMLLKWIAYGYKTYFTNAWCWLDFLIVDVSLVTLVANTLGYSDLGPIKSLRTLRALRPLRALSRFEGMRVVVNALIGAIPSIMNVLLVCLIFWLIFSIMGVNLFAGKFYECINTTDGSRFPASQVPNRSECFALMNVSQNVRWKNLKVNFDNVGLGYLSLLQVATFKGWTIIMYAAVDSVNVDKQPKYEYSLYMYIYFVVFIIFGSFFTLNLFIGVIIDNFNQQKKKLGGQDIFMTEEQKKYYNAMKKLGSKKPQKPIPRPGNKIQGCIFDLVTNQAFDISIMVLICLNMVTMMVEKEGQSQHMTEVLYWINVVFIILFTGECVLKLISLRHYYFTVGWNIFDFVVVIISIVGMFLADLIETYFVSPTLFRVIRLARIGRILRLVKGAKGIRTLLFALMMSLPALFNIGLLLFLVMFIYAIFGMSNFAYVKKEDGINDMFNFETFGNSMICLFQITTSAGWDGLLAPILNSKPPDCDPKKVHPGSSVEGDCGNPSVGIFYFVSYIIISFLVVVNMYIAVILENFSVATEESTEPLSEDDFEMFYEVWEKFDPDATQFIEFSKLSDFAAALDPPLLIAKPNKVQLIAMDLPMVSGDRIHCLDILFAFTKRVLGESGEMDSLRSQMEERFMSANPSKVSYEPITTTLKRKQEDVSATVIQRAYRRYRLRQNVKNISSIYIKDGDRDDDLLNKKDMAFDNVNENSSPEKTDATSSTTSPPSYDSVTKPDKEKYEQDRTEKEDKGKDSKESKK
Procedure: HEK293 cells were purchased from Shanghai Institute of Biological Sciences, Chinese Academy of Sciences. HEK293 cells were cultured in medium (DMEM containing 10% fetal bovine serum and 1% penicillin/streptomycin) in an atmosphere of 5% CO2 at 37° C.
The NaV1.7 sequence was synthesized by GenScript (Nanjing, Jiangsu Province, China) and inserted into the pcDNA3.1 (+)-C-DYK plasmid between the BamH1 and EcoRI restriction sites. The empty plasmid of pcDNA3.1 purchased from Shenzhen Yanming Biotechnology Company was used as a mock transfection control. […]
as §1, §2

[2] = system: spared nerve injury (SNI) rat model; assay: Acetone test, cold allodynia in SNI rats; format: in vivo; conditions: 50 μg/kg/day intrathecally, from 14 days post injury
From the text: (§3) The SNI surgery was constructed as previously described^16, 17. In brief, after animals were anesthetized by isoflurane (1.5-2.5%), a half centimeter incision was made in the middle of the outer. Muscles from the upper layer were bluntly dissected to expose the sciatic nerve and its branches to the left hind leg's common peroneal, tibial, and peroneal nerves. Then, the front two nerves were clipped, and the […]. In the sham-operated group, the sciatic nerve was only exposed, and no clipping or injury was done. After suturing the skin, animals were transferred to an observation box for recovery.
(§4) Intrathecal administration of vehicle or drugs was conducted by direct lumbar puncture in the L5-L6 intervertebral space with a 30-gauge needle following the method of Mestre^18. This procedure was performed under isoflurane anesthesia to permit rapid recovery of the animals. The quality of each injection was ensured by the observation of an injection-induced tail-flick.
Assessment of cold allodynia was using acetone test^20. Animals were placed in the assessment cage described above for habituation. Acetone was collected by pipette for each trial. […] As the acetone fast spread across the plantar skin and evaporated, noxious withdrawal responses of the hind paw (fluttering, licking, or hanging) against the cold stimuli was recorded. […]

[3] = system: spared nerve injury (SNI) rat model; assay: Pin test, hyperalgesia in SNI rats; format: in vivo; conditions: 50 μg/kg/day intrathecally, from 14 days post injury
From the text: as §3, §4
Hyperalgesia was evaluated by pin test described previously^20. […] Normal response (brief flinch) or noxious-like response (sustained elevation of the paw with licking, shaking, or grooming) was recorded in 10 repeated trials with a minimum of 10 seconds' gap. Data was expressed as percentage of noxious-like response out of 10 trials.

NRF2 = assay: Immunoblot of NRF2 expression in L4-L6 DRG of SNI rats; format: in vivo, rat; conditions: 50 μg/kg, DRG collected 3 h after administration, versus vehicle
From the text: as §3, §4
For western blotting, L4-6 DRGs were extracted from the ipsilateral surgery of SNI rats and stored in liquid nitrogen to be set aside. DRGs were then sheared in pre-cooled potent RIPA lysate (containing protease and phosphatase inhibitors) and their whole cell lysates were obtained by ultrasonic crushing on ice. […] Immunoreactive bands were detected by chemiluminescence.

ROS level in DRG neurons = ROS level in DRG neurons by DCFH-DA flow cytometry; format: in vivo, rat; conditions: SNI rats, 50 μg/kg i.th, 3 h after administration, versus vehicle
From the text: as §3
Intrathecal administration of vehicle or drugs was conducted by direct lumbar puncture in the L5-L6 intervertebral space with a 30-gauge needle following the method of Mestre^18. […]
ROS level of DRG neurons were labeled by ROS Assay Kit (Beyotime Co., Ltd., China) and detected by flow cytometry according to the manufacturer's instructions. […] However, after entering the cell, DCFH-DA is hydrolyzed by cellular esterase to generate DCFH (2′,7′-dichlorodihydrofluorescein), which is non-permeable to the cell membrane, and can be oxidized by ROS into fluorescent DCF (2′,7′-dichlorofluorescein) that can be detected by flow cytometry. The fluorescence intensity represents the intracellular ROS levels.

[4] = system: spared nerve injury (SNI) rat model; assay: Von Frey test, mechanical allodynia in spared nerve injury (SNI) rats; format: in vivo; conditions: 50 μg/kg/day intrathecally, from 14 days post injury
From the text: as §3, §4
Assessment of mechanical allodynia was using the Von Frey test as previously described^17. The animals were placed in plastic cages with metal mesh on the bottom and allowed to acclimatize for at least half an hour before each test. Each Von Frey wire was held perpendicular to the contact surface of the paw until it bent. […]

- inhibition of NaV1.7 current density under excessive oxidative stress (NaV1.7; HEK293 cells transfected with NaV1.7, pre-treated with H2O2 (500 μM, 20 min), then 20 μM overnight): Same inhibiting properties
SMILES: Cc1ccc(-c2noc(-c3ccc(F)c(F)c3)n2)cn1 [Compound 1, 5-(3,4-difluorophenyl)-3-(6-methylpyridin-3-yl)-1,2,4-oxadiazole]
- inhibition of NaV currents [1]: significant inhibition of NaV currents
- inhibition of NaV1.7 current density (NaV1.7; HEK293 cells transfected with NaV1.7 plasmid, 20 μM overnight): significantly inhibited NaV1.7 current density
- max inhibiting rate in cold allodynia [2]: ~35.0%
- max inhibiting rate in hyperalgesia [3]: ~37.5%
- expression level of NRF2 in L4-L6 DRG (NRF2): increased the expression level of NRF2
- ROS level in DRG neurons (DCF staining) (ROS level in DRG neurons): decreased
- max inhibiting rate in mechanical allodynia [4]: about 70.0%
